Measurements: patent US9914869B2, “System and method for inhibiting scale formation in oil wells” (GLOBAL GREEN PRODUCTS LLC, priority 2012, dated 2018)

Test: Scale inhibitor comparison: static bottle test (barium sulfate) and dynamic tube block test (calcium carbonate)
Details: barium sulfate / calcium carbonate scale inhibition; table does not say which scale
Source text: These types of chemistries may be used as a comparison when evaluating one or more new scale inhibitors, such as the various aspartic acid based polymers.

Compound	Approximate effective Concentration
O=P(O)(O)CN(CCCCCCN(CP(=O)(O)O)CP(=O)(O)O)CCCCCCN(CP(=O)(O)O)CP(=O)(O)O [BHMT Phosphonate]	2 ppm
diethylenetriamine (DETA) phosphonates [DETA Phosphonate]	2 ppm
